# In PubChem BioAssay AID1963422 (Molecular Pharmacology Branch, DTP, NCI, 2024):
# Where “and” joins values, the source holds several entries; their conditions need not be identical. Equal entries are not always repeated.
# Test system: 463943-066-T-J2-PDC complex spheroid growth
# Assay: Anticancer human tumor 463943-066-T-J2-PDC patient-derived colon adenocarcinoma cell line growth inhibition [Asc]
# Settings: for viability, T/C: stronger effect = lower value
# Procedure, shortened: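 Stromal components (HUVEC and hMSC) are co-assembled with the cancer cells into multicellular spheroids. Drugs are then added singly or paired, at concentrations falling by half-log increments from a clinically achievable maximum, capped at 10 microM without known Cmax.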
# 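Further: compound exposure lasted 7 days.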
# 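Wherever viability, T/C is given: 100% = DMSO vehicle control wells.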
smiles,measurement,setting,value
C=CC(=O)N1CCN(c2nc(=O)n(-c3c(C)ccnc3C(C)C)c3nc(-c4c(O)cccc4F)c(F)cc23)C(C)C1 (centres undefined) + Cc1c(S(C)(=O)=O)c(-c2cc(F)cc(N3CCN(c4ccc(NS(=O)(=O)c5ccc(NC(CCN6CCC(C(=O)OCCCP(=O)(O)O)CC6)CSc6ccccc6)c(S(=O)(=O)C(F)(F)F)c5)cc4)CC3)c2)c(-c2ccc(Cl)cc2)n1C(C)C,IC50,"curve of first compound, second compound 0.0316 µM",> 10 µM
same,IC50,"curve of first compound, second compound 0.1 µM",> 10 µM
same,IC50,"curve of first compound, second compound 0.316 µM",> 10 µM
same,IC50,"curve of first compound, second compound 1 µM",> 10 µM
same,IC50,"curve of first compound, second compound 3.16 µM",> 10 µM
same,IC50,"curve of first compound, second compound 10 µM",7.14 µM
same,"viability, T/C","second compound 0.0316 µM, first compound 0.0316 µM",84.9%
same,"viability, T/C","second compound 0.0316 µM, first compound 0.1 µM",92.3%
same,"viability, T/C","second compound 0.0316 µM, first compound 0.316 µM",91%
same,"viability, T/C","second compound 0.0316 µM, first compound 1 µM",96.1%
same,"viability, T/C","second compound 0.0316 µM, first compound 3.16 µM",100%
same,"viability, T/C","second compound 0.0316 µM, first compound 10 µM",78.3%
same,"viability, T/C","second compound 0.1 µM, first compound 0.0316 µM",95%
same,"viability, T/C","second compound 0.1 µM, first compound 0.1 µM",89.7%
same,"viability, T/C","second compound 0.1 µM, first compound 0.316 µM",91.4%
same,"viability, T/C","second compound 0.1 µM, first compound 1 µM",93.6%
same,"viability, T/C","second compound 0.1 µM, first compound 3.16 µM",91.9%
same,"viability, T/C","second compound 0.1 µM, first compound 10 µM",84.4%
same,"viability, T/C","second compound 0.316 µM, first compound 0.0316 µM",83.8%
same,"viability, T/C","second compound 0.316 µM, first compound 0.1 µM",90%
same,"viability, T/C","second compound 0.316 µM, first compound 0.316 µM",85.3%
same,"viability, T/C","second compound 0.316 µM, first compound 1 µM",87.3%
same,"viability, T/C","second compound 0.316 µM, first compound 3.16 µM",86.8%
same,"viability, T/C","second compound 0.316 µM, first compound 10 µM",83%
same,"viability, T/C","second compound 1 µM, first compound 0.0316 µM",74%
same,"viability, T/C","second compound 1 µM, first compound 0.1 µM",75.6%
same,"viability, T/C","second compound 1 µM, first compound 0.316 µM",75.3%
same,"viability, T/C","second compound 1 µM, first compound 1 µM",77%
same,"viability, T/C","second compound 1 µM, first compound 3.16 µM",72%
same,"viability, T/C","second compound 1 µM, first compound 10 µM",64.4%
same,"viability, T/C","second compound 3.16 µM, first compound 0.0316 µM",57.8%
same,"viability, T/C","second compound 3.16 µM, first compound 0.1 µM",59.4%
same,"viability, T/C","second compound 3.16 µM, first compound 0.316 µM",60.1%
same,"viability, T/C","second compound 3.16 µM, first compound 1 µM",65%
same,"viability, T/C","second compound 3.16 µM, first compound 3.16 µM",66%
same,"viability, T/C","second compound 3.16 µM, first compound 10 µM",54.2%
same,"viability, T/C","second compound 10 µM, first compound 0.0316 µM",51.5%
same,"viability, T/C","second compound 10 µM, first compound 0.1 µM",48.2%
same,"viability, T/C","second compound 10 µM, first compound 0.316 µM",52.9%
same,"viability, T/C","second compound 10 µM, first compound 1 µM",50.6%
same,"viability, T/C","second compound 10 µM, first compound 3.16 µM",52.1%
same,"viability, T/C","second compound 10 µM, first compound 10 µM",47.9%
Cc1nc(N2CCC3(CC2)COC(C)C3N)c(CO)nc1Sc1ccnc(N)c1Cl (centres undefined),"viability, T/C",compound 0.00949 µM,97.7% and 107% (2×)
same,"viability, T/C",compound 0.03 µM,88.5% and 90.2% and 90.5%
same,"viability, T/C",compound 0.0949 µM,86.5% and 88.5% and 79.4%
same,"viability, T/C",compound 0.3 µM,87.4% and 87% and 82%
same,"viability, T/C",compound 0.949 µM,87% and 81.9% and 80.6%
same,"viability, T/C",compound 3 µM,70.8% (2×) and 71.8%
same,IC50,curve of compound,> 3 µM
